Test results published in ChEMBL document CHEMBL1909046, “DrugMatrix in vitro pharmacology data”.

Key:
[1] = molecular target: Beta-3 adrenergic receptor (Homo sapiens, UniProt P13945); assay: DRUGMATRIX: Adrenergic beta3 radioligand binding (ligand: [125I] Cyanopindolol); format: cell membranes, HEK293, Membrane; details: hek293; Not Active = under 50% inhibition at 10 µM
[2] = molecular target: T1, Type-2 angiotensin II receptor (Homo sapiens, UniProt P50052); format: cell-based; details: cho-k1; note: in other assays of this panel Not Active means under 50% inhibition at 10 µM
T1 sequence (P50052 whole entry): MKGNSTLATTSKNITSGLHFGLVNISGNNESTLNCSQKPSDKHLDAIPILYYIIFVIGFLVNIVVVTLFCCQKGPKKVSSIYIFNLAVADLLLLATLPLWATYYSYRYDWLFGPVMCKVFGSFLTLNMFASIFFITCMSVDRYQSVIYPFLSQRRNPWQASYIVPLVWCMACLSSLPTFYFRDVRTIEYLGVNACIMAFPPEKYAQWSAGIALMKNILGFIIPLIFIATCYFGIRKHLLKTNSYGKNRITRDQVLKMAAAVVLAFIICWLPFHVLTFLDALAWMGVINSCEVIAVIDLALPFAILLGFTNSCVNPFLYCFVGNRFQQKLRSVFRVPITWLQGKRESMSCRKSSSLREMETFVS

B2 bradykinin receptor = molecular target: T2, B2 bradykinin receptor (Homo sapiens, UniProt P30411); format: cell membranes, Membrane; details: chem-1; note: in other assays of this panel Not Active means under 50% inhibition at 10 µM
T2 sequence (P30411 whole entry): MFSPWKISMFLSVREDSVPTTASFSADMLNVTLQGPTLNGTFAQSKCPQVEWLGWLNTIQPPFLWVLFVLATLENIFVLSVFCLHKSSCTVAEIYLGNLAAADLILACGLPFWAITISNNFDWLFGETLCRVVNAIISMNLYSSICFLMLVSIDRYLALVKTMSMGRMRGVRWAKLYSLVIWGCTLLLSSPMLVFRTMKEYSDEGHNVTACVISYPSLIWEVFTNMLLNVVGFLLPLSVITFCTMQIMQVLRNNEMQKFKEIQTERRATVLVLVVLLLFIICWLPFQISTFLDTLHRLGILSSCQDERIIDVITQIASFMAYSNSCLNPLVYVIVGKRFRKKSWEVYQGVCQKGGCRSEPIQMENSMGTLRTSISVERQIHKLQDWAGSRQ

[3] = DRUGMATRIX: Calcium Channel Type L, Dihydropyridine radioligand binding (ligand: [3H] Nitrendipine); format: cell membranes, Rattus norvegicus, Wistar, Cerebral cortex, Membrane; details: Not Active = under 50% inhibition at 10 µM
[4] = DRUGMATRIX: Serotonin (5-Hydroxytryptamine) 5-HT3 radioligand binding (ligand: [3H] GR-65630); format: cell membranes, Membrane; details: hek293; Not Active = under 50% inhibition at 10 µM
Vasopressin V1a receptor = Vasopressin V1a receptor (Homo sapiens, UniProt P37288); format: cell membranes, Membrane; details: hek293; note: in other assays of this panel Not Active means under 50% inhibition at 10 µM
Carbonic anhydrase 2 = Carbonic anhydrase 2 (Homo sapiens, UniProt P00918); assay: DRUGMATRIX: Carbonic Anhydrase II enzyme inhibition (substrate: 4-Nitrophenyl acetate (4-NPA)); format: tissue-based, Erythrocyte; details: erythrocyte; Not Active = under 50% inhibition at 10 µM
[5] = molecular target: T3, C-X-C chemokine receptor type 1 (Homo sapiens, UniProt P25024); note: in other assays of this panel Not Active means under 50% inhibition at 10 µM
T3 sequence (P25024 whole entry): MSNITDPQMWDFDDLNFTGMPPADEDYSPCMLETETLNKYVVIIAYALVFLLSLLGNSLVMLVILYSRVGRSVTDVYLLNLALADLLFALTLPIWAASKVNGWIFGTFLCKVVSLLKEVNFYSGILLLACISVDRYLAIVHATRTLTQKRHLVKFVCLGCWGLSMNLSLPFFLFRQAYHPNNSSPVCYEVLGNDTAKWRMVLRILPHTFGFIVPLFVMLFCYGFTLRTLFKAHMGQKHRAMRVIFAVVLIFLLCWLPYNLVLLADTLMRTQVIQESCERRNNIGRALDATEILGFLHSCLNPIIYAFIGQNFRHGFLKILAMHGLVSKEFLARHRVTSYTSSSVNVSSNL

[6] = DRUGMATRIX: Glutamate, AMPA radioligand binding (ligand: [3H] AMPA); format: cell membranes, Rattus norvegicus, Wistar, Cerebral cortex, Membrane; details: Not Active = under 50% inhibition at 10 µM
Mu-type opioid receptor = Mu-type opioid receptor (Homo sapiens, UniProt P35372); assay: DRUGMATRIX: Opiate mu (OP3, MOP) radioligand binding (ligand: [3H] Diprenorphine); format: cell membranes, CHO-K1, Membrane; details: cho-k1; Not Active = under 50% inhibition at 10 µM
[7] = DRUGMATRIX: Phorbol Ester radioligand binding (ligand: [3H] PDBu); format: cell membranes, Mus musculus, ICR, Brain, Membrane; details: Not Active = under 50% inhibition at 10 µM
[8] = DRUGMATRIX: Phosphodiesterase PDE3 enzyme inhibition (substrate: [3H]cAMP + cAMP); format: tissue-based, Homo sapiens; details: platelet; Not Active = under 50% inhibition at 10 µM
Caspase-1 = molecular target: T4, Caspase-1 (Homo sapiens, UniProt P29466); set-up: species or system Escherichia coli
T4 sequence (P29466 whole entry): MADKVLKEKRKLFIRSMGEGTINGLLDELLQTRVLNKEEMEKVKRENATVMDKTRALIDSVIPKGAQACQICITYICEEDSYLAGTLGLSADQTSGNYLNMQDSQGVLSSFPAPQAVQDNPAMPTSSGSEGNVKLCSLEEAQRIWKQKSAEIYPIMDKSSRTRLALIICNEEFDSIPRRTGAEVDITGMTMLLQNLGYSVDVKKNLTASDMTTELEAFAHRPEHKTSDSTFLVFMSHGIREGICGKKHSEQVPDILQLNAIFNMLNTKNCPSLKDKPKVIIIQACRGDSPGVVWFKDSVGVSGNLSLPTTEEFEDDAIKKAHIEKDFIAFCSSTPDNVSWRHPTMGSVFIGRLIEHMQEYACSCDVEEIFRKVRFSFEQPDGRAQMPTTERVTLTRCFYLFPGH

[9] = molecular target: Mitogen-activated protein kinase 1 (Homo sapiens, UniProt P28482); assay: DRUGMATRIX: Protein Serine/Threonine Kinase, ERK2 enzyme inhibition (substrate: Myelin Basic Protein); set-up: species or system Escherichia coli; details: Not Active = under 50% inhibition at 10 µM
[10] = molecular target: Receptor tyrosine-protein kinase erbB-2 (Homo sapiens, UniProt P04626); assay: biochemical; format: cell-based, Insect cells; details: insect cells
Adenosine receptor A3 = molecular target: T5, Adenosine receptor A3 (Homo sapiens, UniProt P0DMS8); format: cell membranes, CHO-K1, Membrane
T5 sequence (P0DMS8 whole entry): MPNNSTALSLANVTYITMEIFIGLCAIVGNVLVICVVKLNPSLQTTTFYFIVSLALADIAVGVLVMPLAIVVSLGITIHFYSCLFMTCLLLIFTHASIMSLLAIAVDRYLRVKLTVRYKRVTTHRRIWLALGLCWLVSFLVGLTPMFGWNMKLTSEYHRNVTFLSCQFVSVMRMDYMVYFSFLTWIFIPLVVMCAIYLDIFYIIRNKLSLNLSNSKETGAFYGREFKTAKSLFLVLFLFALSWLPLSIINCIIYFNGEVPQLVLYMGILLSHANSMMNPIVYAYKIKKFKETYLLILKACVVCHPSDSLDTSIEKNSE

Chain of Vasopressin V1a receptor (P37288 whole entry): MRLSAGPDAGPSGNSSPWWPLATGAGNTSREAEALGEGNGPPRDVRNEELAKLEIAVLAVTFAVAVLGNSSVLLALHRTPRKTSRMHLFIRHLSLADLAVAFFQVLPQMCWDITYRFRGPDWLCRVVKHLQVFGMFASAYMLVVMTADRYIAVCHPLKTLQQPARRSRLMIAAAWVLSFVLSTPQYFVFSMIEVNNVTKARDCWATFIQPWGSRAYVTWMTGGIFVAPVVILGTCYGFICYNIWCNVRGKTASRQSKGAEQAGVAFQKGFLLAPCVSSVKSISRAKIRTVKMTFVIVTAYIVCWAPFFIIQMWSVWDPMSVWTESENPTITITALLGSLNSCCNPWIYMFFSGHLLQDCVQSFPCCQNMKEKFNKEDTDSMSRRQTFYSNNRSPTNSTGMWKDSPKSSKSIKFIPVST
Chain of Mu-type opioid receptor (P35372 whole entry): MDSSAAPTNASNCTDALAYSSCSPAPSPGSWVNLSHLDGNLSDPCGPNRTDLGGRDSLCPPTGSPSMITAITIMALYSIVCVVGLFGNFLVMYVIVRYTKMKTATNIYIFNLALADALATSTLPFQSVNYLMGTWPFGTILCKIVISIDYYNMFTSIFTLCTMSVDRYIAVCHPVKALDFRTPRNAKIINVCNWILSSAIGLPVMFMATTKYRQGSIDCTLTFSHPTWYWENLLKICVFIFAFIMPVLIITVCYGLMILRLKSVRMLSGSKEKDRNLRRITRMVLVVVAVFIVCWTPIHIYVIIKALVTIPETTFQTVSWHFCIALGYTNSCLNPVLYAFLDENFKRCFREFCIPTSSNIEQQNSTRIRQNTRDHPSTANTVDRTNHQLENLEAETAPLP
Chain of Receptor tyrosine-protein kinase erbB-2 (P04626 whole entry): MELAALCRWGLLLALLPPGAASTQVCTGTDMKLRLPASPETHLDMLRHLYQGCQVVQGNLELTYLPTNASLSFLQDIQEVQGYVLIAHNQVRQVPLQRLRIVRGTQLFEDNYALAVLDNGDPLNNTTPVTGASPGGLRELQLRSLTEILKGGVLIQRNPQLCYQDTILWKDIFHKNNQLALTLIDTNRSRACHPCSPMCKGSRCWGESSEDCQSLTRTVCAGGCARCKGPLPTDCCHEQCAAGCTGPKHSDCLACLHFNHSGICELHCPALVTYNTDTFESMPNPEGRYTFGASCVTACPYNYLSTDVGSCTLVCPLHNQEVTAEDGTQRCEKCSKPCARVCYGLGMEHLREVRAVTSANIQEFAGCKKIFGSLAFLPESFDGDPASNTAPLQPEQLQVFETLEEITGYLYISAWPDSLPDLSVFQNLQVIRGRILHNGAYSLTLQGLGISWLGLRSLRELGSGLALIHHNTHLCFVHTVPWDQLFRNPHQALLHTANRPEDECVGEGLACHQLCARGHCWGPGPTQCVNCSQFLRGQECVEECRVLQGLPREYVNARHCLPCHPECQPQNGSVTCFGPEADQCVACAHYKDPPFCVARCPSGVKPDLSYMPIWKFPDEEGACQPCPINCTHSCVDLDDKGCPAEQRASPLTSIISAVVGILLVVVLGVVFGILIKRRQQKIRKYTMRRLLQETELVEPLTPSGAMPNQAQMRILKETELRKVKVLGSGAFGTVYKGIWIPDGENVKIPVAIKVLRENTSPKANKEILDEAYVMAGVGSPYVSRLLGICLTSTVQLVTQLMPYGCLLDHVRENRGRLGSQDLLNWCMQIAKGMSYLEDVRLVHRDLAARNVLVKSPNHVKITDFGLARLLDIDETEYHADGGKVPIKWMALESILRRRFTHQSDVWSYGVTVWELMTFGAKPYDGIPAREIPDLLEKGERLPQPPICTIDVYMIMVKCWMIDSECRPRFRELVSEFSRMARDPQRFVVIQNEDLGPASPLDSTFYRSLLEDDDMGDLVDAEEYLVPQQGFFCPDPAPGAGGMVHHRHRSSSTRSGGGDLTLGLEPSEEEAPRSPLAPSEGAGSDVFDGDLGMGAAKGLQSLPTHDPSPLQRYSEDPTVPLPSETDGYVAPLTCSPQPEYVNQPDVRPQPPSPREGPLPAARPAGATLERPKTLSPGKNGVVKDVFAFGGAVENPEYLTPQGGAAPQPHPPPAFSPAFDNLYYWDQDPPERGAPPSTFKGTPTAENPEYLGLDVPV
Chain of Beta-3 adrenergic receptor (P13945 whole entry): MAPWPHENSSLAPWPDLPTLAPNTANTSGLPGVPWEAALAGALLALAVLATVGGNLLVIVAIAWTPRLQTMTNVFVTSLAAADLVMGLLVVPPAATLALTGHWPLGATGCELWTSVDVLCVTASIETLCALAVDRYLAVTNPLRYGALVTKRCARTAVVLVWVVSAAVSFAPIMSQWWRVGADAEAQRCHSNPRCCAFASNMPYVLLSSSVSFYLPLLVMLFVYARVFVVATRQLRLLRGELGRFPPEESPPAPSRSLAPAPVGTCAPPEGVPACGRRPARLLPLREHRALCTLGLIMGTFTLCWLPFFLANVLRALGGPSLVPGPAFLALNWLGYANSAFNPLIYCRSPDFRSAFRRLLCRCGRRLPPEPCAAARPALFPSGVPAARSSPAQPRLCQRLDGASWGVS
Chain of Mitogen-activated protein kinase 1 (P28482 whole entry): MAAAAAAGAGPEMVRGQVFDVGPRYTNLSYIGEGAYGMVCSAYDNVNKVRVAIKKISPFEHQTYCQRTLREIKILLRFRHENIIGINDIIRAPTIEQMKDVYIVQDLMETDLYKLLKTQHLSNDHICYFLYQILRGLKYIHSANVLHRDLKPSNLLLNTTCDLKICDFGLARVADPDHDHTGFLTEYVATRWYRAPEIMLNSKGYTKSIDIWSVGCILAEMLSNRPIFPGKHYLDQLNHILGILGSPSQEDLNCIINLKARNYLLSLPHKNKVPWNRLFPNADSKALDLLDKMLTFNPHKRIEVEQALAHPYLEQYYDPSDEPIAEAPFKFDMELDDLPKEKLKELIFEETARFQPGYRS

Compound	IC50 [1]	IC50 [2]	IC50 (B2 bradykinin receptor)	IC50 [3]	Ki [3]	IC50 [4]	Ki [4]	IC50 (Vasopressin V1a receptor)	IC50 (Carbonic anhydrase 2)	IC50 [5]	IC50 [6]	Ki [6]	IC50 (Mu-type opioid receptor)	IC50 [7]	Ki [7]	IC50 [8]	Ki [8]	IC50 (Caspase-1)	IC50 [9]	IC50 [10]	also measured
Nc1nnc(-c2cccc(Cl)c2Cl)c(N)n1 [LAMOTRIGINE]	Not Active	Not Active	Not Active	Not Active	Not Active	Not Active	Not Active	Not Active	Not Active	Not Active	Not Active	Not Active	Not Active	Not Active	Not Active	Not Active	Not Active	Not Active	Not Active	Not Active	IC50 (Adenosine receptor A3; cho-k1): Not Active
CCC[C@@H]1C[C@@H](C(=O)N[C@@H]([C@H]2O[C@H](SC)[C@H](O)[C@@H](O)[C@H]2O)[C@@H](C)O)N(C)C1 [LINCOMYCIN]	Not Active	Not Active	Not Active	Not Active	Not Active	Not Active	Not Active	Not Active	Not Active	Not Active	Not Active	Not Active	Not Active	Not Active	Not Active	Not Active	Not Active	Not Active	Not Active	Not Active	IC50 (Adenosine receptor A3; cho-k1): Not Active
NCCCC[C@H](N[C@@H](CCc1ccccc1)C(=O)O)C(=O)N1CCC[C@H]1C(=O)O [LISINOPRIL ANHYDROUS]	Not Active	Not Active	Not Active	Not Active	Not Active	Not Active	Not Active	Not Active	Not Active	Not Active	Not Active	Not Active	Not Active	Not Active	Not Active	Not Active	Not Active	Not Active	Not Active	Not Active	IC50 (Adenosine receptor A3; cho-k1): Not Active
COS(C)(=O)=O [METHANESULFONIC ACID METHYL ESTER]	Not Active	Not Active	Not Active	Not Active	Not Active	Not Active	Not Active	Not Active	Not Active	Not Active	Not Active	Not Active	Not Active	Not Active	Not Active	Not Active	Not Active	Not Active	Not Active	Not Active	IC50 (Adenosine receptor A3; cho-k1): Not Active
COC(=O)c1ccc(O)cc1 [METHYLPARABEN]	Not Active	Not Active	Not Active	Not Active	Not Active	Not Active	Not Active	Not Active	Not Active	Not Active	Not Active	Not Active	Not Active	Not Active	Not Active	Not Active	Not Active	Not Active	Not Active	Not Active	IC50 (Adenosine receptor A3; cho-k1): Not Active
C[C@](N)(Cc1ccc(O)cc1)C(=O)O [METYROSINE]	Not Active	Not Active	Not Active	Not Active	Not Active	Not Active	Not Active	Not Active	Not Active	Not Active	Not Active	Not Active	Not Active	Not Active	Not Active	Not Active	Not Active	Not Active	Not Active	Not Active	IC50 (Adenosine receptor A3; cho-k1): Not Active
Clc1ccc(C(c2ccccc2Cl)C(Cl)Cl)cc1 (stereo not drawn) [MITOTANE]	Not Active	Not Active	Not Active	Not Active	Not Active	Not Active	Not Active	Not Active	Not Active	Not Active	Not Active	Not Active	Not Active	Not Active	Not Active	Not Active	Not Active	Not Active	Not Active	Not Active	IC50 (Adenosine receptor A3; read-out: IC50): 7.45 µM; Ki (Adenosine receptor A3; read-out: Ki): 4.21 µM
